Some test systems named below: HOP-92 NSCLC; SK-MEL-5 melanoma; OVCAR-8 ovarian; HCT-116 colon; M14 melanoma; SW-620 colon; SNB-75 CNS; A498 renal; UACC-257 melanoma.
Common to all, as to test: growth of human tumour cells (NCI), 48 h

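The compound was tested at five concentrations on cells cultured in 96-well plates, with a 48-hour exposure period. GI50: concentration for 50% inhibition of growth. TGI is the concentration that stops growth completely.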 Where a SMILES comes first, the peptide text is derived from it. [ ]: non-standard residue; d: D form. The star is where a group is joined. NMeF = CN[CH](Cc1ccccc1)C(=O)O; NMeV = CN[CH](C(=O)O)C(C)C; Boc = CC(C)(C)OC(=O)*; OBn = c1ccc(CO*)cc1

As for `CC1(C)CCc2cc3c(cc2O1)OC(C)(C)C1c2c(ccc4c2CCC(C)(C)O4)OC31` (centres undefined), the TGI in the test with HOP-92 NSCLC, in the test with SK-MEL-5 melanoma, with OVCAR-8 ovarian, in the test on HCT-116 colon, in the test with M14 melanoma and in the test with SW-620 colon was over 100 µM each time.

In the case of `CC1SC2=NC3=C(c4ccccc4C3=O)C(c3ccc(Br)cc3)N2C1=O` (centres undefined), the TGI in the test on SNB-75 CNS is 96.9 µM; in the test with HOP-92 NSCLC it was over 100 µM; in the test on SK-MEL-5 melanoma, over 100 µM; in the test on A498 renal it was over 100 µM; in the test with OVCAR-8 ovarian, over 100 µM; in the test on UACC-257 melanoma it was over 100 µM. The TGI in the test on M14 melanoma and in the test with SW-620 colon was over 100 µM each time.

Turning to `O=C1C2C(C(=O)[N]1[Hg][c]1ccccc1)C1(Cl)C(Cl)=C(Cl)C2(Cl)C1(Cl)Cl` (centres undefined), the GI50 with SNB-75 CNS is 1.33 µM; with HOP-92 NSCLC, 1.87 µM; in the test with SK-MEL-5 melanoma, 1 µM; in the test on A498 renal, 2.45 µM; with HCT-116 colon, 1.54 µM; with UACC-257 melanoma, 1.22 µM. For the same compound, the GI50 with M14 melanoma was 1.16 µM; with SW-620 colon it was 0.464 µM. In addition, the TGI in the test on SNB-75 CNS was 2.92 µM; in the test on HOP-92 NSCLC it was 3.97 µM; with SK-MEL-5 melanoma, 2.17 µM; in the test with A498 renal, 11.9 µM; with HCT-116 colon, 2.87 µM; with UACC-257 melanoma, 2.52 µM. The TGI was 2.43 µM with M14 melanoma and 1.8 µM in the test on SW-620 colon.

Take `COc1cc(Nc2ncc3c(n2)-c2ccc(Cl)cc2C(c2c(F)cccc2OC)=NC3)ccc1C(=O)O`: the GI50 is 2.23 µM in the test on SNB-75 CNS; 2.35 µM in the test on HOP-92 NSCLC; 12.3 µM in the test with SK-MEL-5 melanoma; 0.211 µM in the test with A498 renal; 8.94 µM in the test with OVCAR-8 ovarian; 18.2 µM in the test on UACC-257 melanoma. Further, the GI50 in the test with M14 melanoma was 13.6 µM; with SW-620 colon, 1.74 µM. The TGI in the test on SNB-75 CNS was 24.6 µM; in the test with HOP-92 NSCLC, 14.1 µM; in the test on SK-MEL-5 melanoma, 29.1 µM; with A498 renal, 2.55 µM; in the test on OVCAR-8 ovarian, over 100 µM; in the test on UACC-257 melanoma, over 92.5 µM. Besides, the results for the TGI with M14 melanoma and in the test with SW-620 colon were 42.8 µM and over 100 µM, respectively.

`COc1cc(C2[C@H]3C(=O)N(c4ccc(Cc5ccc(N6C(=O)[C@@H]7ON(c8ccccc8)C(c8cc(OC)c(OC)c(OC)c8)[C@@H]7C6=O)cc5)cc4)C(=O)[C@H]3ON2c2ccccc2)cc(OC)c1OC` (some centres undefined): the TGI in the test with SNB-75 CNS, in the test on SK-MEL-5 melanoma, in the test with A498 renal, with OVCAR-8 ovarian, with HCT-116 colon and with UACC-257 melanoma was over 100 µM throughout. Besides, the TGI with M14 melanoma is 48.6 µM; with SW-620 colon it was over 100 µM.

Regarding `CC(C)O/C=C1\C(=O)C2(SCCS2)[C@H]2CCCC[C@@H]12`, the TGI is over 100 µM in the test on SNB-75 CNS; over 100 µM in the test with SK-MEL-5 melanoma; 75 µM in the test with A498 renal; over 100 µM with OVCAR-8 ovarian; over 100 µM with HCT-116 colon; over 100 µM with UACC-257 melanoma. Further, the TGI in the test with M14 melanoma and in the test with SW-620 colon was over 100 µM in each case.

Consider `Cn1c(=O)c(C(c2ccccc2)c2c(O)c3ccccc3n(C)c2=O)c(O)c2ccccc21`, for which the TGI with SNB-75 CNS, with HOP-92 NSCLC, in the test with SK-MEL-5 melanoma, in the test on OVCAR-8 ovarian, in the test with HCT-116 colon and in the test on UACC-257 melanoma was over 100 µM in each case. Besides, the TGI with M14 melanoma and in the test on SW-620 colon was over 100 µM each time.

Consider `COc1ccc(CNc2nc3ccccc3nc2-c2cccs2)cc1OC`, for which the TGI was 51.3 µM in the test with HOP-92 NSCLC; over 100 µM in the test on OVCAR-8 ovarian; over 100 µM in the test with HCT-116 colon; over 100 µM in the test on UACC-257 melanoma; over 100 µM in the test with SW-620 colon.

For `CCN(CC)C(=O)c1c(N2CCOCC2)cc(N(CC)CC)oc1=O`, the TGI in the test on SNB-75 CNS, in the test with HOP-92 NSCLC, in the test on A498 renal, with OVCAR-8 ovarian, in the test with HCT-116 colon and with UACC-257 melanoma was over 100 µM throughout. Moreover, the TGI in the test with M14 melanoma and with SW-620 colon was over 100 µM each time.

`OCCc1cnco1`: the TGI in the test with SNB-75 CNS, in the test with SK-MEL-5 melanoma, with OVCAR-8 ovarian, in the test with HCT-116 colon, in the test on M14 melanoma and in the test on SW-620 colon was over 100 µM throughout.

Consider `CCC[CH2][Sn]1([CH2]CCC)[O]C(=O)C[S]1`, for which the GI50 was 1.35 µM in the test on SNB-75 CNS; 1.84 µM in the test on HOP-92 NSCLC; 1.44 µM with SK-MEL-5 melanoma; 2.11 µM with OVCAR-8 ovarian; 1.91 µM in the test on HCT-116 colon; 1.4 µM in the test with UACC-257 melanoma. Further, the GI50 is 2.05 µM in the test with M14 melanoma and 0.984 µM with SW-620 colon. The TGI in the test on SNB-75 CNS was 3.27 µM; with HOP-92 NSCLC it was 3.95 µM; with SK-MEL-5 melanoma, 3 µM; in the test on OVCAR-8 ovarian, 5.46 µM; in the test with HCT-116 colon it was 4.49 µM; in the test with UACC-257 melanoma, 3.27 µM. Further, the values for the TGI in the test on M14 melanoma and in the test on SW-620 colon were 4.43 µM and 3.13 µM, respectively.

For `COC1=NN2C(OC)(c3ccccc3)c3c(-c4ccccc4)sc(-c4ccccc4)c3C2(c2ccccc2)S1` (centres undefined), the TGI with SNB-75 CNS, with HOP-92 NSCLC, in the test on A498 renal, in the test with OVCAR-8 ovarian, in the test on HCT-116 colon and in the test with UACC-257 melanoma was over 100 µM throughout. Further, the results for the TGI in the test with M14 melanoma and with SW-620 colon were over 10 µM and over 100 µM, respectively.

Take `CC(C)C(NC(=O)OC(C)(C)C)C(=O)N(C)C(Cc1ccccc1)C(=O)N(C)C(C(=O)N(C)C(C(=O)OCc1ccccc1)C(C)C)C(C)C` (centres undefined) (Boc-V[NMeF][NMeV][NMeV]-OBn; configuration not given here): the TGI with SK-MEL-5 melanoma, in the test with OVCAR-8 ovarian, with HCT-116 colon, in the test with UACC-257 melanoma, in the test with M14 melanoma and in the test on SW-620 colon was over 100 µM each time.

On to `CC(C)C(/C=C/c1ccccc1)=N\NC(=O)N/N=C(/C=C/c1ccccc1)C(C)C`, for which the TGI in the test with SNB-75 CNS was 92.5 µM; in the test with HOP-92 NSCLC, 91.3 µM; with SK-MEL-5 melanoma, 53.7 µM; with OVCAR-8 ovarian, over 100 µM; in the test on HCT-116 colon it was 45 µM; in the test on UACC-257 melanoma, over 100 µM. Besides, the TGI in the test on M14 melanoma and in the test on SW-620 colon was over 100 µM in each case.

As for `COc1cc(NCC(C#N)C#N)ccc1N=Nc1ccc([N+](=O)[O-])cc1`, the TGI in the test on SNB-75 CNS, in the test with SK-MEL-5 melanoma, in the test on A498 renal, in the test with OVCAR-8 ovarian, in the test with HCT-116 colon and in the test on UACC-257 melanoma was over 100 µM each time. Besides, the TGI in the test with M14 melanoma and in the test with SW-620 colon was over 100 µM in each case.

`COc1cc2ccc(CC#N)cc2cc1OC`: the TGI in the test on HOP-92 NSCLC, with SK-MEL-5 melanoma, in the test on A498 renal, with OVCAR-8 ovarian, with UACC-257 melanoma and in the test on SW-620 colon was over 100 µM each time.

In the case of `O=C1c2c(c3c4ccccc4n4c3c3c2c2ccccc2n3C/C=C\C4)C(=O)N1Cc1ccccc1`, the TGI in the test on SNB-75 CNS is 68.9 µM; in the test with SK-MEL-5 melanoma, over 100 µM; in the test with A498 renal it was over 100 µM; in the test with OVCAR-8 ovarian it was over 100 µM; in the test on HCT-116 colon it was over 100 µM; in the test with UACC-257 melanoma it was over 100 µM. The TGI in the test on M14 melanoma and in the test with SW-620 colon was over 100 µM throughout.

In the case of `COc1cc2c(c3oc(-c4ccc5c(c4)OCO5)c(O)c(=O)c13)CCC(C)(C)O2`, the TGI in the test on SNB-75 CNS, in the test with SK-MEL-5 melanoma, in the test with A498 renal, in the test with OVCAR-8 ovarian, with M14 melanoma and with SW-620 colon was over 100 µM in each case.

Turning to `CC(=O)Nc1ccc(-c2nnc(SCC(=O)Nc3ccccc3[N+](=O)[O-])o2)cc1`, the TGI in the test with SNB-75 CNS, with HOP-92 NSCLC, with SK-MEL-5 melanoma, with OVCAR-8 ovarian, in the test with HCT-116 colon and in the test with UACC-257 melanoma was over 100 µM throughout. For the same compound, the TGI with M14 melanoma and in the test on SW-620 colon was over 100 µM each time.

In the case of `Cn1cc2ccccc2c1-c1nc(F)nc(Oc2ccc3c(c2)CC[C@@H]2C3CC[C@]3(C)C(O)CCC23)n1` (some centres undefined), the TGI in the test with SNB-75 CNS was 28.6 µM; in the test with HOP-92 NSCLC, 44.3 µM; with SK-MEL-5 melanoma, 30.2 µM; in the test on OVCAR-8 ovarian, 36 µM; in the test with HCT-116 colon, 35.8 µM; in the test on UACC-257 melanoma it was 36.3 µM. In addition, the TGI was determined as 30.1 µM with M14 melanoma and 43.5 µM with SW-620 colon.

In the case of `COc1ccc2oc(-c3ccncc3)cc(=O)c2c1`, the TGI in the test on SNB-75 CNS, in the test on HOP-92 NSCLC, in the test on A498 renal, in the test with HCT-116 colon, in the test with UACC-257 melanoma and in the test with M14 melanoma was over 100 µM in each case.

As to `O=C1C2Cc3ccccc3CN2C(=O)N1CN1CCN(CN2C(=O)C3Cc4ccccc4CN3C2=O)CC1` (centres undefined), the TGI in the test with SNB-75 CNS, in the test on HOP-92 NSCLC, in the test on SK-MEL-5 melanoma, in the test on A498 renal, in the test on OVCAR-8 ovarian and in the test with UACC-257 melanoma was over 100 µM in each case. In the test on SW-620 colon, this compound showed a TGI of over 100 µM.

These data come from PubChem BioAssay (NCI).
